# Measurements published in patent publication US9663473B2 (Actelion Pharmaceuticals Ltd, priority 2013, dated 2017).
# Target: T1, recombinant human ALX receptor (Homo sapiens, UniProt P25090)
# T1 construct: expressed in transfected cells; host or cells: HEK293 (HEK293-hALXR-Gα16)
# T1 sequence (P25090 1-351): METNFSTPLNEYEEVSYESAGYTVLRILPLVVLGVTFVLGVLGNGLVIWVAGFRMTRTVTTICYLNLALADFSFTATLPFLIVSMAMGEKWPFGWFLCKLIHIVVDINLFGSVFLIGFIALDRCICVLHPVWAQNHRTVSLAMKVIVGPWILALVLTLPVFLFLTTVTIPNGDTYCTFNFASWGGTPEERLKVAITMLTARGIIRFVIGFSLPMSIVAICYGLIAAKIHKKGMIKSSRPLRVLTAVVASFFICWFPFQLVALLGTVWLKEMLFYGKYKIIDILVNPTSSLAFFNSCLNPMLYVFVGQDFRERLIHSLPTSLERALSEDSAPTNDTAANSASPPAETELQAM
# Assay: Intracellular calcium measurements (FLIPR), ALX receptor agonistic activity
# Type: cell-based
# Conditions: HEK293-hALXR-Gα16 cells, Fluo-4 calcium signal, normalized to WKYMVm 10 nM
# Summary of the method: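 HEK293 cells co-expressing human ALX receptor and Gα16 were loaded with 1 μM Fluo-4 AM for 60 min at 37° C., then exposed to serially diluted compounds on FLIPR Tetra. Peak fluorescence above baseline (ex 488/em 540 nm) was normalized to 10 nM WKYMVm as high control.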
row,SMILES,EC50
1,"COc1ccc(CC(NC(=O)NC23CCC(O)(CC2)CC3)c2nc3ccccc3[nH]2)cc1F (centres unmarked) [Example 193, 1-(1-(1H-Benzo[d]imidazol-2-yl)-2-(3-fluoro-4-methoxyphenyl)ethyl)-3-(4-hydroxybicyclo[2.2.2]octan-1-yl)urea]",0.0018 µM
2,"COc1ccc(C[C@@H](NC(=O)NCCN2CCc3ccccc3C2)c2nc3ccccc3[nH]2)cc1 [Example 297, (R)-1-(1-(1H-Benzo[d]imidazol-2-yl)-2-(4-methoxyphenyl)ethyl)-3-(2-(3,4-dihydroisoquinolin-2(1H)-yl)ethyl)urea]",0.217 µM
3,"COc1ccc(C[C@@H](NC(=O)N[C@H]2CNC[C@@H]2F)c2nc3ccccc3[nH]2)cc1 (relative stereo) [Example 184, 1-((R)-1-(1H-Benzo[d]imidazol-2-yl)-2-(4-methoxyphenyl)ethyl)-3-((3S*,4S*)-4-fluoropyrrolidin-3-yl)urea]",0.829 µM
4,"COc1ccc(C[C@@H](NC(=O)N[C@H](CC(=O)OC(C)(C)C)c2ccccc2)c2nc3ccccc3[nH]2)cc1 [Example 378, (R)-tert-Butyl 3-(3-((R)-1-(1H-benzo[d]imidazol-2-yl)-2-(4-methoxyphenyl)ethyl)ureido)-3-phenylpropanoate]",1.47 µM
5,"COc1ccc(CC(NC(=O)N[C@H]2CC[C@H](O)CC2)c2nc3ccccc3[nH]2)c(F)c1F (relative stereo) [Example 232, 1-(1-(1H-Benzo[d]imidazol-2-yl)-2-(2,3-difluoro-4-methoxyphenyl)ethyl)-3-(trans-4-hydroxycyclohexyl)urea]",0.0026 µM
6,"COc1ccc(C[C@@H](NC(=O)NCCc2ccncc2)c2nc3ccccc3[nH]2)cc1 [Example 295, (R)-1-(1-(1H-Benzo[d]imidazol-2-yl)-2-(4-methoxyphenyl)ethyl)-3-(2-(pyridin-4-yl)ethyl)urea]",0.645 µM
7,"O=C(NC(Cc1ccc(Br)c(F)c1)c1nc2ccccc2[nH]1)NC12CCC(O)(CC1)CC2 (centres unmarked) [Example 230, 1-(1-(1H-Benzo[d]imidazol-2-yl)-2-(4-bromo-3-fluorophenyl)ethyl)-3-(4-hydroxybicyclo[2.2.2]octan-1-yl)urea]",0.021 µM
8,"COc1ccc(C[C@@H](NC(=O)NCc2ncc(Br)cc2F)c2nc3ccccc3[nH]2)cc1 [Example 291, (R)-1-(1-(1H-Benzo[d]imidazol-2-yl)-2-(4-methoxyphenyl)ethyl)-3-((5-bromo-3-fluoropyridin-2-yl)methyl)urea]",0.439 µM
9,"COc1ccc(C[C@@H](NC(=O)N(CCO)C2CCCCC2)c2nc3ccccc3[nH]2)cc1 [Example 111, (R)-3-(1-(1H-Benzo[d]imidazol-2-yl)-2-(4-methoxyphenyl)ethyl)-1-cyclohexyl-1-(2-hydroxyethyl)urea]",0.142 µM
10,"COc1ccc(C[C@@H](NC(=O)NCc2ccccc2OC(F)F)c2nc3ccccc3[nH]2)cc1 [Example 198, (R)-1-(1-(1H-Benzo[d]imidazol-2-yl)-2-(4-methoxyphenyl)ethyl)-3-(2-(difluoromethoxy)benzyl)urea]",0.299 µM
11,"COc1ccc(C[C@@H](NC(=O)N[C@H]2CCCC[C@H]2C(N)=O)c2nc3ccccc3[nH]2)cc1 (relative stereo) [Example 18, (1R*,2S*)-2-(3-((R)-1-(1H-Benzo[d]imidazol-2-yl)-2-(4-methoxyphenyl)ethyl)ureido)cyclohexanecarboxamide]",0.029 µM
12,"O=C(N[C@H](Cc1ccc(Br)cc1)c1nc2ccccc2[nH]1)NC12CCC(O)(CC1)CC2 [Example 220, (R)-1-(1-(1H-Benzo[d]imidazol-2-yl)-2-(4-bromophenyl)ethyl)-3-(4-hydroxybicyclo[2.2.2]octan-1-yl)urea]",0.0049 µM
13,"C[C@]1(O)CC[C@H](NC(=O)N[C@H](Cc2ccc(C(F)(F)F)cc2)c2nc3ccccc3[nH]2)CC1 [Example 256, 1-((R)-1-(1H-Benzo[d]imidazol-2-yl)-2-(4-(trifluoromethyl)phenyl)ethyl)-3-(trans-4-hydroxy-4-methylcyclohexyl)urea]",0.013 µM
14,"COc1ccc(C[C@@H](NC(=O)NC2CCNCC2)c2nc3ccccc3[nH]2)cc1 [Example 108, (R)-1-(1-(1H-Benzo[d]imidazol-2-yl)-2-(4-methoxyphenyl)ethyl)-3-(piperidin-4-yl)urea]",0.052 µM
15,"COc1ccc(C[C@@H](NC(=O)N2CC3CC2CN3C(=O)OC(C)(C)C)c2nc3ccccc3[nH]2)cc1 (stereo partly drawn) [Example 382, tert-Butyl 5-(((R)-1-(1H-benzo[d]imidazol-2-yl)-2-(4-methoxyphenyl)ethyl)carbamoyl)-2,5-diazabicyclo[2.2.1]heptane-2-carboxylate]",1.9 µM
16,"COc1ccc(CC(NC(=O)N[C@@H](C)c2cccc(Cl)c2)c2nc3ccccc3[nH]2)cc1 (stereo partly drawn) [Example 360, 1-(1-(1H-Benzo[d]imidazol-2-yl)-2-(4-methoxyphenyl)ethyl)-3-((S)-1-(3-chlorophenyl)ethyl)urea]",0.561 µM

row,SMILES,EC50
1,"O=C(NC(Cc1ccc(Br)c(F)c1)c1nc2ccc(F)cc2[nH]1)NC12CCC(O)(CC1)CC2 (single isomer, unassigned; ent-1) [Example 400, 1-(2-(4-bromo-3-fluorophenyl)-1-(6-fluoro-1H-benzo[d]imidazol-2-yl)ethyl)-3-(4-hydroxybicyclo[2.2.2]octan-1-yl)urea (ent-1)]",0.0026 µM
2,"COc1ccc(C[C@@H](NC(=O)NCc2nn(C)c3ccccc23)c2nc3ccccc3[nH]2)cc1 [Example 298, (R)-1-(1-(1H-Benzo[d]imidazol-2-yl)-2-(4-methoxyphenyl)ethyl)-3-((1-methyl-1H-indazol-3-yl)methyl)urea]",0.203 µM
3,"COc1ccc(C[C@@H](NC(=O)NCCc2ccc(C(F)(F)F)cc2)c2nc3ccccc3[nH]2)cc1 [Example 269, (R)-1-(1-(1H-Benzo[d]imidazol-2-yl)-2-(4-methoxyphenyl)ethyl)-3-(4-(trifluoromethyl)phenethyl)urea]",0.471 µM
4,"COc1ccc(CC(NC(=O)NCc2ccc(Cl)cc2)c2nc3ccccc3[nH]2)cc1 (centres unmarked) [Example 43, 1-(1-(1H-Benzo[d]imidazol-2-yl)-2-(4-methoxyphenyl)ethyl)-3-(4-chlorobenzyl)urea]",0.611 µM
5,"COc1ccc(C[C@@H](NC(=O)N[C@H]2CC[C@H](O)CC2)c2nc3ccc(Cl)cc3[nH]2)cc1 [Example 36, 1-((R)-1-(6-Chloro-1H-benzo[d]imidazol-2-yl)-2-(4-methoxyphenyl)ethyl)-3-(trans-4-hydroxycyclohexyl)urea]",0.001 µM
6,"COc1ccc(C[C@@H](NC(=O)NC(C)(C)c2ccc(Cl)cc2)c2nc3ccccc3[nH]2)cc1 [Example 352, (R)-1-(1-(1H-Benzo[d]imidazol-2-yl)-2-(4-methoxyphenyl)ethyl)-3-(2-(4-chlorophenyl)propan-2-yl)urea]",0.372 µM
7,"COc1ccc(CC(NC(=O)NC23CCC(O)(CC2)CC3)c2nc3ccccc3[nH]2)c(F)c1 (centres unmarked) [Example 233, 1-(1-(1H-Benzo[d]imidazol-2-yl)-2-(2-fluoro-4-methoxyphenyl)ethyl)-3-(4-hydroxybicyclo[2.2.2]octan-1-yl)urea]",0.0037 µM
8,"O=C(N[C@H](Cc1ccc(Br)cc1)c1nc2ccc(C(F)(F)F)cc2[nH]1)N[C@H]1CC[C@H](O)CC1 [Example 222, 1-((R)-2-(4-Bromophenyl)-1-(6-(trifluoromethyl)-1H-benzo[d]imidazol-2-yl)ethyl)-3-(trans-4-hydroxycyclohexyl)urea]",0.0078 µM
9,"COc1ccc(CC(NC(=O)Nc2ccnn2-c2ccccn2)c2nc3ccccc3[nH]2)cc1 (centres unmarked) [Example 411, 1-(1-(1H-benzo[d]imidazol-2-yl)-2-(4-methoxyphenyl)ethyl)-3-(1-(pyridin-2-yl)-1H-pyrazol-5-yl)urea]",0.056 µM
10,"COc1ccc(C[C@@H](NC(=O)NCC(C)c2ccccc2)c2nc3ccccc3[nH]2)cc1 (stereo partly drawn) [Example 197, 1-((R)-1-(1H-Benzo[d]imidazol-2-yl)-2-(4-methoxyphenyl)ethyl)-3-(2-phenylpropyl)urea]",0.05 µM
11,"COc1ccc(CC(NC(=O)NC2CCCC(O)C2)c2nc3ccccc3[nH]2)cc1 (centres unmarked) [Example 37, 1-(1-(1H-Benzo[d]imidazol-2-yl)-2-(4-methoxyphenyl)ethyl)-3-(3-hydroxycyclohexyl)urea]",0.027 µM
12,"COc1ccc(C[C@@H](NC(=O)NCc2cccc(Cl)c2Cl)c2nc3ccccc3[nH]2)cc1 [Example 307, (R)-1-(1-(1H-Benzo[d]imidazol-2-yl)-2-(4-methoxyphenyl)ethyl)-3-(2,3-dichlorobenzyl)urea]",0.05 µM
13,"COc1ccc(CC(NC(=O)NCc2cccnc2OC)c2nc3ccccc3[nH]2)cc1 (centres unmarked) [Example 385, 1-(1-(1H-Benzo[d]imidazol-2-yl)-2-(4-methoxyphenyl)ethyl)-3-((2-methoxypyridin-3-yl)methyl)urea]",1.03 µM
14,"COc1ccc(C[C@@H](NC(=O)Nc2ccc(OC)cc2)c2nc3ccccc3[nH]2)cc1 [Example 104, (R)-1-(1-(1H-Benzo[d]imidazol-2-yl)-2-(4-methoxyphenyl)ethyl)-3-(4-methoxyphenyl)urea]",0.257 µM
15,"COc1ccc(C[C@@H](NC(=O)N[C@H](C)c2cccc(OC)c2)c2nc3ccccc3[nH]2)cc1 [Example 332, 1-((R)-1-(1H-Benzo[d]imidazol-2-yl)-2-(4-methoxyphenyl)ethyl)-3-((R)-1-(3-methoxyphenyl)ethyl)urea]",0.101 µM
16,"COc1ccc(C[C@@H](NC(=O)NC23CCC(O)(CC2)CC3)c2nc3ccc(Cl)cc3[nH]2)cc1 [Example 192, (R)-1-(1-(6-Chloro-1H-benzo[d]imidazol-2-yl)-2-(4-methoxyphenyl)ethyl)-3-(4-hydroxybicyclo[2.2.2]octan-1-yl)urea]",0.0001 µM
